Read-outs that look alike come from different tables or passages of the source.
Molecular target: T1, TLR9 (Homo sapiens, UniProt Q9NR96)
T1 construct: expressed in transfected cells; host or cells: NIH 3T3 fibroblasts (mouse), stably transfected, NF-kB driven SEAP reporter
T1 sequence (Q9NR96 26-1032): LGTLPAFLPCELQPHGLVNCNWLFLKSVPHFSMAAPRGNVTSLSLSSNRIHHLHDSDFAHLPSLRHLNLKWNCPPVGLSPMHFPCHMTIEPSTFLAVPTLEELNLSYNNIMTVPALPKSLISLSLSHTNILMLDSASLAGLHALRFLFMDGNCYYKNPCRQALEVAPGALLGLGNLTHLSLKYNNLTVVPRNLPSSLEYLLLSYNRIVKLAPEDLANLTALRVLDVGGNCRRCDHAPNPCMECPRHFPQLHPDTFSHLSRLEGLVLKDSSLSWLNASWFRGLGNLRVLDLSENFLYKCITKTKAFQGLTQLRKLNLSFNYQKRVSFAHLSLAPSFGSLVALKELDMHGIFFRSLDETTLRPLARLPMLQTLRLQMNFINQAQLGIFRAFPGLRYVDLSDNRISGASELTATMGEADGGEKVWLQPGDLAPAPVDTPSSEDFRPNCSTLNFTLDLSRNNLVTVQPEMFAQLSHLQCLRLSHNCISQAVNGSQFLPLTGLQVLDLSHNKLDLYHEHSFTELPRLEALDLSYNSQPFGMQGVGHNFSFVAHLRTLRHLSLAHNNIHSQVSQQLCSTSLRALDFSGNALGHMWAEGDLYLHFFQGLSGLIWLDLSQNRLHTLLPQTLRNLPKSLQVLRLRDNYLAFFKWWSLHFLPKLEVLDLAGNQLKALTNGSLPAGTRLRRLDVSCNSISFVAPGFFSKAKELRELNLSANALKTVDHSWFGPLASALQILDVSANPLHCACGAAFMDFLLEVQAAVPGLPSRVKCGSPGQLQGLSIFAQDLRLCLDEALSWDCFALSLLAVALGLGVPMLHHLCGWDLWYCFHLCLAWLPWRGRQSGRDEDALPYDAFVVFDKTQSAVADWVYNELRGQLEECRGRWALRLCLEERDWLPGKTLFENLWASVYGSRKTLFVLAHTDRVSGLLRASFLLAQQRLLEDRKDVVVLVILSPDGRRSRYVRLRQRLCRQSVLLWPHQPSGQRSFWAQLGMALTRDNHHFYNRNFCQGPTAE
Assay: cell-based reporter assay (NIH 3T3 reporter cell line expressing TLR9, NF-kB driven SEAP, stimulated with CpG ODN 2216)
Protocol: In context with the present invention, the ‘IC50 value’ is the half maximum inhibitory concentration which is a measure of the effectiveness of a substance inhibiting the function of the TLR9. The IC50 value can be determined by a functional antagonist assay or a competition binding assay. Preferably, the IC50 value is determined by the cell-based reporter assay in section 3, below, of the examples.
A cell based test-system that allows PAMPs to be identified and differentiated via pattern recognition receptors (PRRs) in a reporter gene assay was used (DE 10 2006 031 483, EP 2 041 172). For this assay human PRRs and co-receptors were stably transfected and expressed in NIH 3T3 fibroblasts. This cell line expresses no other PRRs and contains a reporter gene which is activated by PRR-activation. The induction of receptor complexes by their ligands leads, after a signalling cascade, to an activation of transcription factor NF-kB, which regulates the expression of an additional integrated reporter gene, a secreted alkaline phosphatase (SEAP) (Burger-Kentischer, A.; Abele, I. S.; Finkelmeier, D.; Wiesmüller, K.-H.; Rupp, S., A new cell-based innate immune receptor assay for the examination of receptor activity, ligand specificity, signalling pathways and the detection of pyrogens. J. Immunol. Methods 2010, 358 (1), 93-103).
This test system mimics elements of the innate human immune system and can selectively recognize a large number of PAMPs with high sensitivity. Consequently, the PRR-specific cell-based high-throughput feature of the reporter cell lines will provide a fast, flexible and convenient means for lead compound screening in the pharmaceutical drug development fields. For the in vitro screening of the top candidates identified at IDR, the Fraunhofer IGB used this cell-based reporter system to identify TLR9 antagonists in order to determine their activity as well their biocompatibility. Within a first step the NIH3T3 cell line expressing TLR9 was used to measure the inhibitory effect of the TLR9 antagonists.
For the experiment the reporter cell line expressing TL9 was plated in 96-well cell culture plates at a density of 0.3×10^5 cells in DMEM media supplemented with 10% FCS (Invitrogen), 1% L-glutamine (200 mM Invitrogen) and 1% Penicillin-Streptomycin (PenStrep: 100×, Invitrogen). The cells were incubated for 16 h to grow adherent monolayers at 37° C. in a 5% saturated CO2 humidified atmosphere. After overnight incubation, the media was removed and replaced by DMEM medium supplemented with 1% PenStrep, 1% L-glutamine and 0.5% FCS. The media change is important to avoid a unspecific background signal, caused by active remaining phosphatases present in the FCS. The cells are then stimulated with a specific ligand non-methylated CpG ODN 2216 agonist (Invivogen) and the potential antagonists using different concentrations, namely within a range of concentrations of the potential antagonists starting with 0.025 μM (for the antagonist with the highest activity) up to 14 mM for the antagonists with lowest activities.
The ODN ligand has the sequence 5′-ggGGGACGA:TCGTCgggggg-3′ (SEQ ID No. 1). Those represented by capital letters are phosphodiesters, and those in small letters are phosphorothioate. The Palindrome is underlined.
The cells were again incubated in a humidified atmosphere for 16h leading to the expression or reduced expression of SEAP and its secretion into the media. Binding of the antagonist leads to a block of the TLR9, resulting in no or in a reduced expression of the reporter gene (SEAP). Therefore, 50 μl supernatant were taken from the cells and transferred into a 96-well PS microplate flat bottom (Greiner BIO-ONE). The enzyme substrate reaction was initiated by adding 50 μl of the specific substrate. SEAP catalyses the hydrolysis of pNPP to the final product para-nitrophenol (yellow), which can be detected in a photometric analysis using an UV-VIS reader at 405 nm. […]

[1] = Table 5, first 30 candidates, ODN 2216 agonist, n≥3, read-out: IC50 in
[2] = in the presence of 5 μM of the ODN 2216 agonist, read-out: IC50 in

Compound `c1ccc2c(NCCNc3ncnc4ccccc34)cccc2c1` [T5807811, n1cnc2c(cccc2)c1NCCNc1c2c(ccc1)cccc2] has an IC50 [1] of 57 µM.
With `c1ccc(-c2cc(-c3cccnc3)nc3ccccc23)cc1` [T5762626, n1c2c(cccc2)c(cc1-c1cccnc1)-c1ccccc1] the “IC50 in [μM]” value (Table 5, first 30 candidates, ODN 2216 agonist, n≥3) was “agonist”.
For `COc1ccc(/C=C/c2ccc3ccccc3n2)c(OC)c1` [T5713724, O(C)c1cc(OC)ccc1\C═C\c1nc2c(cc1)cccc2], the IC50 [1] was 15.9 µM.
With `c1ccc(-n2cc(CNCCCN3CCOCC3)c(-c3cc4ccccc4o3)n2)cc1` [T5570245] the ODN2216 signal (FIG. 3, 5 μM ODN 2216, 0.12 μM-7.8 μM of antagonist) was “dose dependent reduction of the signal”, the IC50 (FIG. 3, 5 μM ODN 2216, 0.12 μM-7.8 μM of antagonist, read-out: IC50 value) was 0.8 µM and the IC50 [2] was 0.815 µM.
Compound `COc1ccc(/C=C/c2ccc3ccccc3n2)cc1OC` [T6895608, O(C)c1cc(ccc1OC)\C═C\c1nc2c(cc1)cccc2] has an IC50 [1] of 8.91 µM.
In the case of `Clc1ccc(CN2CCC(NCc3ccc(-n4ccnc4)cc3)CC2)cc1` [T6683896], the IC50 [2] is reported as 0.896 µM.
`C(=C\c1ccc2ccccc2n1)/c1ccc(N2CCOCC2)cc1` [T6549007, O1CCN(CC1)c1ccc(cc1)\C═C\c1nc2c(cc1)cccc2] was tested, and the IC50 [1] was 4320 µM.
Compound `COc1ccc(/C=N/c2ccc3nc(C)ccc3c2)cc1` [T0501-1111, O(C)c1ccc(cc1)\C═N\c1cc2c(nc(cc2)C)cc1] has an IC50 [1] of 488 µM.
`COc1ccc(-n2c(-c3ccncc3)nc3ccccc32)cc1` [T5771455, O(C)c1ccc(-n2c3c(nc2-c2ccncc2)cccc3)cc1] showed an IC50 [1] of 11.9 µM.
`c1ccc(Cn2cc(CNCc3ccc(CN4CCOCC4)cc3)c(-c3cccnc3)n2)cc1` [T6216617] gave an IC50 [2] of 7.56 µM.
`CCCN1CCC(NCc2cn(-c3ccccc3)nc2-c2ccc3c(c2)OCCO3)CC1` [T5587050] gave an IC50 [2] of 1.87 µM.
`c1ccc(N2CCN(c3ccc4ccccc4n3)CC2)cc1` [T6495030, n1c2c(ccc1N1CCN(CC1)c1ccccc1)cccc2] gave an IC50 [1] of 220 µM.
`CCOc1ccccc1OCCOc1cccc2cccnc12` [T0513-2251, O(CCOc1c2ncccc2ccc1)c1ccccc1OCC] gave an IC50 [1] of 1080 µM.
Compound `c1ccc(-c2cc(-c3ccncc3)nc3ccccc23)cc1` [T6306924, n1c2c(cccc2)c(cc1-c1ccncc1)-c1ccccc1] has an IC50 [1] of 870 µM.
With `COc1ccc(CCNc2ncnc3c2oc2ccccc23)cc1OC` [T5666774, o1c2c(ncnc2NCCc2cc(OC)c(OC)cc2)c2c1cccc2] the IC50 [1] was 30.3 µM.
For `COc1ccc(CN2CCN(Cc3c(-c4ccccc4)nc4ccccn34)CC2)cc1OC` [T5635793], the IC50 [2] was 6.32 µM.
With `COc1cc(CNC2CCN(Cc3ccccc3)CC2)ccc1OCc1c(C)noc1C` [T5364934] the IC50 [2] was 1.62 µM.

Reference: US11104677B2, “Toll-like receptor 9 antagonists” (FRAUNHOFER-GESELLSCHAFT ZUR FÖRDERUNG DER ANGEWANDTEN …, priority 2015, dated 2021)
